From patent publication US20050003367A1, “Methods and compositions for rapid development of screening assays” (priority 2002, published 2005)
“Also recorded” adds a separate entry of the source.

What was measured:
[1] = cited from earlier work
[2] = target: T1, Vanilloid Receptor-1 (VR1) (Homo sapiens, UniProt Q8NER1); assay: VR1 calcium response assay in HEK-293 clones (VIPRII, 96-well); assay type: cell-based; details: for IC50: responses to 10 μM capsaicin, capsazepine 0.01-100 μM
T1 construct: endogenous in cells; host or cells: HEK-293 clones 5B11 and 5B5

[3] = target: T2, PPARγ (Homo sapiens, UniProt P37231); assay: PPARγ Gal4-DBD UAS β-lactamase reporter assay, HEK293 clone 4G5; assay type: cell-based; details: 10 μM or 32 μM BADGE 1 h at 37° C. before rosiglitazone 1 nM-10 μM
T2 construct: expressed in transfected cells; host or cells: HEK293 7xUAS-β-lactamase line (HEKUASBLA), clone 4G5; The targeting vector was integrated by homologous recombination
T2 sequence (P37231 238-503 limits assumed): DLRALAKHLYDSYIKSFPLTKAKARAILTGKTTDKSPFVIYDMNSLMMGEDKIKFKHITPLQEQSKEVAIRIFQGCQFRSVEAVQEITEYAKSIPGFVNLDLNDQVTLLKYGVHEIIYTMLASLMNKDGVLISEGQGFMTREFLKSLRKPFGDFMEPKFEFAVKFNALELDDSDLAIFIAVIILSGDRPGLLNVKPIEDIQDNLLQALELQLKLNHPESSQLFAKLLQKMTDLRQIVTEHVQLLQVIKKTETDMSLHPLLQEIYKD
Description: (§1) Unless otherwise noted, β-lactamase reporter expression was determined by plating cells into 96 well plates at approx. 10^5 cells/well, and loading with 1 μM CCF2-AM in Hanks' balanced salt solution (HBSS) containing phenol red at 22 ° C. for a period between 1 and 2 h. For visual determination, an epifluorescence microscope (Zeiss 25CFL) equipped with a 10× Fluor objective was used. The filter set contained a 405/20 exciter, a 420 dichroic mirror, and a 435 long-pass filter (Chroma Technologies, Brattleboro Vt.). Fluorescence was then quantified on a Cytofluor 4000 fluorescence plate reader using 395/12.5 nm excitation and emission was detected via 460/50 (blue) and 535/40 (green) band pass filters. Emission intensities from blank wells containing no cells were subtracted from wells containing cells. Calibration of β-lactamase enzyme levels were determined in cell lysates as described by Zlokarnik et al.(1998) Science 279 84-88. Replicate samples of cells were lysed by three cycles of freeze thawing in PBS. β-Lactamase activity in the lysate was measured from the rate of hydrolysis of 1 nmol of CCF2 in 100 μl in a Cytofluor fluorimeter. […]
Single cells were sorted into 96 well plates and expanded. […] At least 16 h before the assay, cell clones on one copy of the assay plates were stimulated as described above. β-lactamase activity was detected in individual clones as described in Example 6. […]

[4] = target: T3, Mineralocorticoid receptor (MR) (Homo sapiens, UniProt P08235); assay: MR Gal4-DBD UAS β-lactamase reporter assay, HEK/UAS/GAL4-MR clone 1B4; assay type: cell-based
T3 construct: expressed in transfected cells; host or cells: HEK293 7xUAS-β-lactamase line (HEKUASBLA), clone 1B4. pKI-Gal4-DBD-MR was integrated by homologous recombination
T3 sequence (P08235 726-964 limits assumed): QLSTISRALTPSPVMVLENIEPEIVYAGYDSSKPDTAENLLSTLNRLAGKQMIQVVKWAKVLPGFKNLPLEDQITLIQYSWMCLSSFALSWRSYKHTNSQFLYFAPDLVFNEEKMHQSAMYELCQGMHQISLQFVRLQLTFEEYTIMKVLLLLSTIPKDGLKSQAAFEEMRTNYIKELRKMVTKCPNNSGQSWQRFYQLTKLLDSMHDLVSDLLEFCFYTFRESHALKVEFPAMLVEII

[5] = target: T4, MC4R (Homo sapiens, UniProt P32245); assay: MC4R CRE β-lactamase reporter assay in HEK 293 (P3D8) MC4 cell lines; assay type: cell-based; details: cells pretreated with the MC4 antagonist
T4 construct: endogenous in cells; host or cells: HEK 293 P3D8 (4XCRE-β-lactamase reporter) clones, e.g. MC4.49
Description: as §1
Three out of the eight characterized MC4 cell lines were chosen for further pharmacological characterization that included a dose response curve with NDP-α-MSH. […] The calculated values were consistent with published data. […]

T1 sequence (Q8NER1 whole entry): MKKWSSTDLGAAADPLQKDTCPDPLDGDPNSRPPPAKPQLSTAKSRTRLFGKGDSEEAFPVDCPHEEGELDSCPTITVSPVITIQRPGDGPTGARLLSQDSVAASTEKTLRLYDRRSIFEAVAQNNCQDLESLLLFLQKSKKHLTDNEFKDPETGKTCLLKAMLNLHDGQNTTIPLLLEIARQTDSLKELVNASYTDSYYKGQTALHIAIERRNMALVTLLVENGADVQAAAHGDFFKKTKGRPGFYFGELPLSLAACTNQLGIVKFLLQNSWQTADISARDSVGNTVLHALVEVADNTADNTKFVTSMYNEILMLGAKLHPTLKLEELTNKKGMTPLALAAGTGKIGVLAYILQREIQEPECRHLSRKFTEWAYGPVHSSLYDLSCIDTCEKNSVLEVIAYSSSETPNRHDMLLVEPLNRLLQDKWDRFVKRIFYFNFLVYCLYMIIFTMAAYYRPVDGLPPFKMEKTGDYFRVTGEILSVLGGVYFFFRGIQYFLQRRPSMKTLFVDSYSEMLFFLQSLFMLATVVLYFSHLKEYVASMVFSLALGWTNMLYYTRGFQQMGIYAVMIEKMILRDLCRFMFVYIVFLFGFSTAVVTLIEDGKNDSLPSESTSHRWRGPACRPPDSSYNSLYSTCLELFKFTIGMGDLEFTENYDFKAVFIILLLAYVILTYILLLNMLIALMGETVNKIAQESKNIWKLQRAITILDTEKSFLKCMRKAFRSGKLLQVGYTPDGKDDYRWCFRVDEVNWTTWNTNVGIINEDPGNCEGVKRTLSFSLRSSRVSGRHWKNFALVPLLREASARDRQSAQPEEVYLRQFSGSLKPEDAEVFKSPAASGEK
T4 sequence (P32245 whole entry): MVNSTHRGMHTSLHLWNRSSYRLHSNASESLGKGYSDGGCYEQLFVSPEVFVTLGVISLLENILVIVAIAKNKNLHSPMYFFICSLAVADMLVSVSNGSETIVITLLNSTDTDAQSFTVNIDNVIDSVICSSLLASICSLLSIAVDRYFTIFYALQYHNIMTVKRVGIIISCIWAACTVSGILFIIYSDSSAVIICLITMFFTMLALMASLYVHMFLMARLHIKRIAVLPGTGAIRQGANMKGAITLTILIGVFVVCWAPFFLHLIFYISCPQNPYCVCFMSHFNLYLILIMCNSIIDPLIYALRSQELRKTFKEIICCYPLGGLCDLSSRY

SNARF-4F carboxylic acid
pKa [1]: ~6.4

Oc1cc2c(cc1O)CN(C(=S)NCCc1ccc(Cl)cc1)CCC2 [capsazepine]
effect on VR1 responses to capsaicin ([2]; 50 μM capsazepine, clones 5B11 and 5B5): failed to respond to any concentration of capsaicin; also recorded: inhibited | IC50 ([2]; clone 5B5): 7.1 µM | IC50 ([2]; clone 5B11): 12.8 µM

C=C(C)[C@]12C[C@@H](C)[C@@]34O[C@](Cc5ccccc5)(O[C@@H]1[C@@H]3C=C(COC(=O)Cc1ccc(O)c(OC)c1)C[C@]1(O)C(=O)C(C)=C[C@@H]41)O2 [resiniferatoxin]
EC50 [2]: 0.427 µM

CC(C)(c1ccc(OCC2CO2)cc1)c1ccc(OCC2CO2)cc1 (centres unmarked) [BADGE]
inhibition of cell response to rosiglitazone [3]: Inhibition of the cell response to the stimuli

C[C@]12CCC(=O)C=C1CC[C@@H]1[C@@H]2[C@@H](O)C[C@@]2(C)[C@H]1CC[C@]2(O)C(=O)CO [Cortisol]
EC50 [4]: 0.004 µM

HS024
inhibition of the response to α-MSH or NDP-α-MSH [5]: inhibited in a concentration-dependant manner
